# Source: patent publication US20100324058A1 (Obschestvo S Organichennoi Otvetsttvennoctiyou "Bionika", priority 2007, published 2010)
# Biological target: thrombin (Homo sapiens, UniProt P00734)
# Experiment: Effect of test compounds on thrombin activity: hydrolysis rate of chromogenic (Chromozim TH) or fluorogenic (BOC-Ala-Pro-Arg-AMC) substrate
# Assay type: biochemical
# Conditions: for inhibition at 0.1 µM: concentration of compound 100 nM; for inhibition at 0.2 µM: concentration of compound 200 nM; for inhibition at 0.02 µM: concentration of compound 20 nM; for inhibition at 0.04 µM: concentration of compound 40 nM; for inhibition at 0.0025 µM: concentration of compound 2.5 nM; for inhibition at 0.005 µM: concentration of compound 5 nM; for inhibition at 0.0125 µM: concentration of compound 12.5 nM; for inhibition at 0.025 µM: concentration of compound 25 nM; for inhibition at 0.05 µM: concentration of compound 50 nM; for inhibition at 0.125 µM: concentration of compound 125 nM; for inhibition at 0.25 µM: concentration of compound 250 nM; for inhibition at 0.01 µM: concentration of compound 10 nM
# From the text: The effect of the synthesized substances on thrombin activity was studied by measuring the hydrolysis rate of specific low molecular weight substrates with thrombin in an aqueous buffering solution in the absence and presence of these compounds. One of these substrates was chromogenic substrate Chromozim TH (CTH): N-(p-Tosyl)-Gly-Pro-Arg-pNA [Sonder S A, Fenton J W 2nd. Thrombin Specificity with Tripeptide Chromogenic Substrates: Comparison of Human and Bovine Thrombins with and without Fibrinogen Clotting Activities. Clin. Chem., 1986, 32(6):934-937]. Another substrate that was used in a number of experiments was fluorogenic substrate BOC-Ala-Pro-Arg-AMC (S), wherein BOC is butoxycarbonyl residue, and AMC is 7-amino-4-methylcoumaryl [Kawabata S, Miura T, Morita T, Kato H, Fujikawa K, Ivanaga S, Takada K, Kimura T, Sakakibara S. Highly Sensitive peptide-4-methylcoumaryl-7-amide Substrates for Blood-Clotting Proteases and Trypsin. Eur. J. Biochem., 1988, 172(1):17-25].
# The holes of a common 96-hole board were filled with a buffer containing 140 mM of NaCl, 20 mM of HEPES, and 0.1% polyethylene glycol (Mw=6,000), at pH=8.0. […] When a chromogenic substrate was used, accumulation of the colored reaction product—para-nitroaniline—was followed on a spectrophotometric Molecular Devices board reader (Thermomax, U.S.), measuring the increase in optical density on the 405 nm wavelength. […] The reaction kinetics was registered on a fluorometric Titertek Fluoroskan board reader (LabSystem, Finland).
# The initial reaction rate was measured as the tangent of the kinetic curve inclination angle on a straight section (first 10 to 15 minutes of registration). Reaction rate without an inhibitor was a ssumed to be 100%. The mean arithmetic value of two independent measurements was used as the end result.
# [1] = concentration of compound 0.5 mcM
# [2] = concentration of compound 2 mcM
# [3] = concentration of compound 5 mcM
# [4] = concentration of compound 20 mcM
# [5] = concentration of compound 50 mcM
# [6] = concentration of compound 100 mcM
# [7] = concentration of compound 1 mcM
# [8] = concentration of compound 10 mcM
# [9] = concentration of compound 2.5 mcM
# [10] = concentration of compound 25 mcM
# [11] = concentration of compound 250 mcM
# [12] = concentration of compound 500 mcM
# [13] = concentration of compound 0.25 mcM
compound,measurement,setting,value
Cc1cc(OCCCn2ccsc2=N)cc(OS(=O)(=O)c2ccccc2)c1,inhibition at 0.1 µM,,5%
same,inhibition at 0.2 µM,,10%
same,"Hydrolysis rate inhibition, %",[1],23%
same,"Hydrolysis rate inhibition, %",[2],57%
same,"Hydrolysis rate inhibition, %",[3],73%
same,"Hydrolysis rate inhibition, %",[4],95%
same,"Hydrolysis rate inhibition, %",[5],95%
same,"Hydrolysis rate inhibition, %",[6],96%
same,"Hydrolysis rate inhibition, %",concentration of compound 200 mcM,97%
"Cc1cc(OCCC[n+]2ccc(N)cc2)cc(OS(=O)(=O)c2ccccc2)c1 [HC-016s-IOC, 4-amino-1-(3-(3-methyl-5-(benzenesulfonyloxy)phenoxy)propyl)-pyridinium iodide]",inhibition at 250 µM,concentration of compound 0.25 mM,84%
same,inhibition at 500 µM,concentration of compound 0.5 mM,100%
"Cc1cc(OCCCSC(=N)N)cc(OS(=O)(=O)c2ccccc2)c1.I [HC-018s-IOC, 3-(3-methyl-5-(benzenesulfonyloxy)phenoxy)propyl-isothiouronium iodide]",inhibition at 0.02 µM,,16%
same,inhibition at 0.04 µM,,33%
same,inhibition at 0.1 µM,,49%
same,inhibition at 0.2 µM,,64%
same,"Hydrolysis rate inhibition, %",[1],93%
same,"Hydrolysis rate inhibition, %",[7],98%
same,"Hydrolysis rate inhibition, %",[2],100%
same,"Hydrolysis rate inhibition, %",[3],100%
same,"Hydrolysis rate inhibition, %",[8],100%
same,"Hydrolysis rate inhibition, %",[4],100%
same,"Hydrolysis rate inhibition, %",[5],100%
same,"Hydrolysis rate inhibition, %",[6],100%
"Cc1cc(OCC[n+]2ccc(N)cc2)cc(OS(=O)(=O)c2ccccc2)c1 [HC-019s-IOC, 4-amino-1-(2-(3-methyl-5-(benzene Sulfonyloxy)phenoxy)ethyl)-pyridinium iodide]",inhibition at 0.0025 µM,,55%
same,inhibition at 0.005 µM,,88%
same,inhibition at 0.0125 µM,,90%
same,inhibition at 0.025 µM,,88%
same,inhibition at 0.05 µM,,95%
same,inhibition at 0.125 µM,,94%
"Cc1cc(OCCSC(=N)N)cc(OS(=O)(=O)c2ccccc2)c1.I [HC-020s-IOC, 2-(3-methyl-5-(benzenesulfonyloxy)phenoxy)ethyl-isothioronium iodide]",inhibition at 0.005 µM,,54%
same,inhibition at 0.0125 µM,,46%
same,inhibition at 0.025 µM,,59%
same,inhibition at 0.05 µM,,68%
same,inhibition at 0.125 µM,,81%
same,inhibition at 0.25 µM,,94%
same,inhibition at 0.5 µM,concentration of compound 500 nM,96%
same,"Hydrolysis rate inhibition, %",concentration of compound 1.25 mcM,98%
same,"Hydrolysis rate inhibition, %",[9],99%
same,"Hydrolysis rate inhibition, %",[3],99%
CN(C)c1cc[n+](CCc2nc3cc(S(=O)(=O)N(C)c4ccccc4)ccc3n2C)cc1.[Cl-] [HC-021s-IOC],"Hydrolysis rate inhibition, %",[10],5%
same,"Hydrolysis rate inhibition, %",[6],8%
same,"Hydrolysis rate inhibition, %",[11],4%
same,"Hydrolysis rate inhibition, %",[12],4%
CNc1ccc(S(=O)(=O)N(C)c2ccccc2)cc1NC(=O)CC[n+]1ccc(N(C)C)cc1.[Cl-] [HC-022s-IOC],"Hydrolysis rate inhibition, %",[13],21%
same,"Hydrolysis rate inhibition, %",[1],18%
same,"Hydrolysis rate inhibition, %",[3],27%
same,"Hydrolysis rate inhibition, %",[10],34%
same,"Hydrolysis rate inhibition, %",[5],40%
same,"Hydrolysis rate inhibition, %",concentration of compound 130 mcM,36%
same,"Hydrolysis rate inhibition, %",[11],51%
"Cc1cc(OCCC[n+]2ccc(N)cc2)cc(OS(=O)(=O)c2ccccc2Cl)c1 [HC-023s-IOC, 4-AMINO-1-(3-(3-METHYL-5-(2-CHLOROBENZENE SULFONYLOXY)PHENOXY)PROPYL)-PYRIDINIUM IODIDE]","Hydrolysis rate inhibition, %",concentration of compound 0.7 mcM,13%
same,"Hydrolysis rate inhibition, %",concentration of compound 1.4 mcM,34%
same,"Hydrolysis rate inhibition, %",concentration of compound 3.4 mcM,50%
same,"Hydrolysis rate inhibition, %",concentration of compound 34 mcM,86%
same,"Hydrolysis rate inhibition, %",concentration of compound 68 mcM,99%
same,"Hydrolysis rate inhibition, %",[11],100%
"Cc1cc(OCC[n+]2ccc(N)cc2)cc(OS(=O)(=O)c2ccccc2Cl)c1 [HC-025s-IOC, 4-amino-1-(2-(3-methyl-5-(2-chlorobenzenesulfonyloxy)phenoxy)ethyl)-pyridinium iodide]",inhibition at 0.00125 µM,concentration of compound 1.25 nM,69%
same,inhibition at 0.0025 µM,,52%
same,inhibition at 0.0063 µM,concentration of compound 6.3 nM,70%
same,inhibition at 0.0125 µM,,81%
same,inhibition at 0.05 µM,,96%
same,inhibition at 0.125 µM,,98%
"Cc1cc(OCCCSC(=N)N)cc(OS(=O)(=O)c2ccccc2Cl)c1 [HC-026s-IOC, 3-(3-methyl-5-(2-chlorobenzenesulfonyloxy)phenoxy)propyl-isothiouronium iodide]",inhibition at 0.005 µM,,47%
same,inhibition at 0.0125 µM,,40%
same,inhibition at 0.025 µM,,64%
same,inhibition at 0.125 µM,,68%
CN(c1ccccc1)S(=O)(=O)c1ccc2c(c1)nc(CC[n+]1ccc(N)cc1)n2C.[Cl-] [HC_027s_IOC],"Hydrolysis rate inhibition, %",[13],11%
same,"Hydrolysis rate inhibition, %",[1],6%
same,"Hydrolysis rate inhibition, %",[9],24%
same,"Hydrolysis rate inhibition, %",[3],24%
same,"Hydrolysis rate inhibition, %",[8],59%
same,"Hydrolysis rate inhibition, %",[10],72%
same,"Hydrolysis rate inhibition, %",[5],88%
same,"Hydrolysis rate inhibition, %",[6],100%
same,"Hydrolysis rate inhibition, %",[11],100%
same,"Hydrolysis rate inhibition, %",[12],100%
CNc1ccc(S(=O)(=O)N(C)c2ccccc2)cc1NC(=O)CC[n+]1ccc(N)cc1.[Cl-] [HC_028s_IOC],"Hydrolysis rate inhibition, %",concentration of compound 0.1 mcM,15%
same,"Hydrolysis rate inhibition, %",[13],34%
same,"Hydrolysis rate inhibition, %",[1],46%
same,"Hydrolysis rate inhibition, %",[7],44%
same,"Hydrolysis rate inhibition, %",[9],63%
same,"Hydrolysis rate inhibition, %",[3],78%
same,"Hydrolysis rate inhibition, %",[10],95%
same,"Hydrolysis rate inhibition, %",[5],95%
same,"Hydrolysis rate inhibition, %",[11],100%
same,"Hydrolysis rate inhibition, %",[12],100%
Cc1cc(OCCC[n+]2ccc(N)cc2)cc(OS(=O)(=O)c2ccccc2F)c1.[I-] [HC_029s_IOC],inhibition at 0.05 µM,,8%
same,inhibition at 0.1 µM,,14%
same,inhibition at 0.25 µM,,16%
same,"Hydrolysis rate inhibition, %",[1],25%
same,"Hydrolysis rate inhibition, %",[7],54%
same,"Hydrolysis rate inhibition, %",[9],75%
same,"Hydrolysis rate inhibition, %",[3],81%
Cc1cc(OCCC[n+]2ccsc2N)cc(OS(=O)(=O)c2ccccc2F)c1.[I-] [HC_030s_IOC],inhibition at 0.02 µM,,5%
same,inhibition at 0.05 µM,,18%
same,"Hydrolysis rate inhibition, %",[2],72%
same,"Hydrolysis rate inhibition, %",[3],88%
same,"Hydrolysis rate inhibition, %",[8],93%
Cc1cc(OCCCSC(=N)N)cc(OS(=O)(=O)c2ccccc2F)c1.I [HC_031s_IOC],inhibition at 0.005 µM,,35%
same,inhibition at 0.01 µM,,43%
same,inhibition at 0.02 µM,,49%
same,inhibition at 0.05 µM,,59%
same,inhibition at 0.1 µM,,73%
same,"Hydrolysis rate inhibition, %",[2],99%
same,"Hydrolysis rate inhibition, %",[3],100%
C/N=C(/N)SCCCOc1cc(C)cc(OS(=O)(=O)c2ccccc2Cl)c1.I [HC_032s_IOC],inhibition at 0.05 µM,,10%
same,inhibition at 0.1 µM,,17%
same,"Hydrolysis rate inhibition, %",[3],48%
same,"Hydrolysis rate inhibition, %",[8],71%
C/N=C(/N)SCCOc1cc(C)cc(OS(=O)(=O)c2ccccc2Cl)c1.I [HC_033s_IOC],inhibition at 0.004 µM,concentration of compound 4 nM,18%
same,inhibition at 0.01 µM,,23%
same,inhibition at 0.02 µM,,24%
same,inhibition at 0.04 µM,,62%
same,inhibition at 0.1 µM,,59%
same,inhibition at 0.2 µM,,74%
same,"Hydrolysis rate inhibition, %",concentration of compound 4 mcM,100%
Cc1cc(OCC[n+]2ccc(N)cc2)cc(OS(=O)(=O)c2ccccc2S(C)(=O)=O)c1 [HC_036s_IOC],inhibition at 0.0025 µM,,29%
same,inhibition at 0.005 µM,,28%
same,inhibition at 0.025 µM,,79%
same,inhibition at 0.05 µM,,88%
same,"Hydrolysis rate inhibition, %",[9],96%
Cc1cc(OCC[n+]2ccc(N)cc2)cc(OS(=O)(=O)c2ccccc2F)c1 [HC_037s_IOC],inhibition at 0.0025 µM,,43%
same,inhibition at 0.005 µM,,59%
same,inhibition at 0.025 µM,,82%
same,inhibition at 0.05 µM,,86%
same,"Hydrolysis rate inhibition, %",[9],89%
Cc1ccc(S(=O)(=O)Oc2cc(C)cc(OCC[n+]3ccc(N)cc3)c2)cc1 [HC_038s_IOC],inhibition at 0.005 µM,,47%
same,inhibition at 0.025 µM,,56%
same,inhibition at 0.05 µM,,85%
same,"Hydrolysis rate inhibition, %",[9],96%
